The record followed here is US20200362024A1, “BIOLOGICAL MATERIALS AND USES THEREOF” (IMPERIAL INNOVATIONS LIMITED, priority 2009, published 2020).

In one assay the test system is RA membrane cells. Description: Blockade of spontaneous cytokine synthesis in RA synovial membrane cultures by FBG peptides. Type of assay: cell-based, human. Particulars: for inhibition of cytokine synthesis: highest concentrations, dose dependent (25, 100 or 250 μM, TNF & IL8, FIG. 16); for TNF and IL8 synthesis (inhibition): spontaneous cytokine synthesis, 24 h with peptide. The protocol: RA membrane cells (representing a mixed population of all synovial cell types) were isolated from synovial membranes obtained from patients undergoing joint replacement surgery (Brennan (1989)). Synovial membrane tissue was digested in RPMI 1640 (GIBCO) containing 5% fetal calf serum (FCS) (GIBCO), 5 mg/ml collagenase type IV (Sigma) and 0 15 mg/ml DNAse type I (Sigma) and incubated at 37° C. for 2 h.
Immediately after isolation, RA membrane cells were cultured at 1×10^5 cells/well in RPMI 1640 containing 10% (v/v) FBS and 100 U/ml penicillin/streptomycin in 96-well tissue culture plates. Cells were incubated for 24 h at 37° C. with no addition, buffer control (PBS, 1% BSA, 0.01% NaN3), or with 25 μm, 100 μM or 250 μM of each FBG spanning peptide.
(§1) Supernatants were examined for the presence of the cytokines TNF-α, IL-6, and IL-8 by enzyme-linked immunosorbent assay (ELISA) according to the manufacturer's instructions (R&D systems). Absorbance was read on a spectrophotometric ELISA plate reader (Labsystems Multiscan Biochromic, Vantaa, Finland) and analyzed using the Ascent software program (Thermo Labsystems, Altrincham, UK).

In assay [1] the test system is primary human macrophages. Put plainly: Cytokine synthesis by primary human macrophages stimulated with FBG peptides. Format: cell-based. The following applies: 1 or 20 μM peptide, 24 h (IL8, FIG. 17). The protocol:
(§2) After incubation the tissue was pipetted through a nylon mesh into a sterile beaker. The cells were then washed three times in complete medium (RPMI 1640 supplemented with 10% FCS). RA synovial fibroblasts were isolated from the mixed population of RA membrane cells by selection in DMEM (Bio-Whittaker) supplemented with 10% FBS, […], 100 U/ml penicillin, and streptomycin. Human monocytes were isolated from peripheral blood (London Blood Bank) and macrophages were derived from monocytes after differentiation for 4 days with 100 ng/ml of M-CSF.
(§3) Macrophages were cultured at 1×10^5 cells/well in RPMI 1640 containing 5% (v/v) FBS and 100 U/ml penicillin/streptomycin in 96-well tissue culture plates for 24 h before stimulation. Cells were incubated for 24 h at 37° C. with no addition, 1.0 μM FBG, 1 ng/ml LPS or 1 or 20 μM FBG peptide. Where stated, cells were pre-incubated with 20 μM FBG peptides for 15 min.
as §1

The test system of a further assay is human macrophages. Put plainly: FBG or LPS induced cytokine synthesis in human macrophages pre-incubated with FBG peptides. Format: cell-based. The following applies: pre-incubated with 20 μM peptide for 15 min; for FBG mediated cytokine synthesis (block): then 1.0 μM FBG 24 h. As for the experimental part: as §2, §3, §1
Assay [2] relates to human macrophages and RA synovial fibroblasts. Description: Ligand induced cytokine synthesis after pre-incubation with function blocking antibodies or inhibitors. Type of assay: cell-based. Particulars: 10 μg/ml IL1 receptor antagonist pre-incubation. The protocol: (§4) Cells were incubated for 24 hours at 37° C. with the indicated doses of tenascin-C and recombinant tenascin-C fragments (1.0 μM-1.0 nM). Cells were also stimulated where indicated with LPS (1 ng/ml for human macrophages, 10 ng/ml for human fibroblasts, RA membrane cells and HEKs, 100 ng/ml for MEFS and BMDMs and 10 ng/ml for HEKS), PAM3 (10 ng/ml for human macrophages, human fibroblasts, and HEKs, 100 ng/ml for MEFs and BMDMs), murine IL-1 (5 ng/ml for MEFS) and murine TNF-α (100 ng/ml for MEFS). Unless specifically stated otherwise rough LPS was used for in vitro studies.
(§5) Where stated, cells were pre-incubated with 10 μg/ml anti-CD14 antibody, 10 μg/ml IL1 receptor antagonist, 10 μg/ml anti-TLR2 antibody, 25 μg/ml anti-TLR4 antibody, 10 or 25 μg/ml isotype control antibody, 25 μg/ml polymyxin B, or 1 μg/ml msbB LPS, for 30 minutes at 37° C. before stimulation. Where stated, recombinant tenascin-C and FBG, and LPS were boiled for 15 minutes before addition to cells
(§6) Supernatants were subsequently examined for the presence of the cytokines TNF-α, IL-6, and IL-8 by enzyme-linked immunosorbent assay (ELISA) according to the manufacturer's instructions. Absorbance was read on a spectrophotometric ELISA plate reader (Labsystems Multiscan Biochromic, Vantaa, Finland) and analyzed using the Ascent software program (Thermo Labsystems, Altrincham, UK).

For assay [3], the system named is MyD88 deficient mouse embryonic fibroblasts. Description: Cytokine synthesis in mouse embryonic fibroblasts from MyD88 deficient mice. Type of assay: cell-based. The following applies: 24 h; FBG 1 μM, PAM3, LPS, TNFα 100 ng/ml, IL-1 5 ng/ml.
Text: (§7) Homozygous MyD88 deficient mice on a C57BL/6 background were provided by the Sanger Institute (Cambridge, UK). Age matched congenic inbred wild type C57B/L6 mice were obtained from Charles River (Margate, UK). For isolation of mouse embryo fibroblasts one female aged 8-10 weeks was mated with two males aged 8-10 weeks. For isolation of bone marrow derived macrophages mice were female and between 10-12 weeks of age at the time of experimentation.
MEFs express high levels of mRNA of all 9 murine TLRs and are specifically and highly responsive to TLR ligand activation. […] Fibroblasts were cultured at 2×10^4 cells/well in DMEM containing 10% (v/v) FBS and 100 U/ml penicillin/streptomycin in 96-well tissue culture plates for 24 hours before stimulation.
as §4, §6

The test system of assay [4] is TLR2 or TLR4 deficient embryonic fibroblasts and bone marrow derived macrophages. Put plainly: Cytokine synthesis in embryonic fibroblasts and macrophages from TLR2 or TLR4 deficient mice. Particulars: 24 h. Format: cell-based, mouse.
Text: as §7, with “Homozygous TLR2 and TLR4 deficient mice on a C57BL/6 background (an inbred strain of mice with a black coat) were obtained from B&K Universal (Hull, UK) Hoshino (1999) and Takeuchi (1999). Homozygous” for “Homozygous”
MEFs express high levels of mRNA of all 9 murine TLRs and are specifically and highly responsive to TLR ligand activation. […] MEFs were isolated from d13 embryos harvested from age-matched, pregnant female wild type, TLR2, TLR4 and null mice (as described in Todaro (1963)). Fibroblasts were cultured at 2×10^4 cells/well in DMEM containing 10% (v/v) FBS and 100 U/ml penicillin/streptomycin in 96-well tissue culture plates for 24 hours before stimulation.
BMDMs were derived by aspirating the femurs of age matched female wild type, TLR2 and TLR4 null mice as described in Butler (1999)) and culturing the cells for 7 days in DMEM, 20% (v/v) FBS, 10 ml/L (v/v) antibiotic-antimycotic solution PSA, 50 μM Mercaptoethanol and 10 ng/ml M-CSF. Macrophages were then cultured at 1×10^5 cells/well in DMEM, 20% (v/v) FBS, 10 ml/L (v/v) antibiotic-antimycotic solution PSA, 50 μM β-Mercaptoethanol in 96-well tissue culture plates for 24 hours before stimulation.
as §4, §6

Assay [5] concerns primary human macrophages. Put plainly: Cytokine synthesis in primary human macrophages stimulated with tenascin-C or its domains. Type of assay: cell-based. As for the experimental part: Human monocytes were isolated from peripheral blood (London Blood Bank) and macrophages were derived from monocytes after differentiation for 4 days with 100 ng/ml of M-CSF as previously described (Foxwell (1998)).
(§8) Immediately after isolation, RA membrane cells and macrophages were cultured at 1×10^5 cells/well in RPMI 1640 containing 10% (v/v) FBS and 100 U/ml (Units/ml) penicillin/streptomycin in 96-well tissue culture plates for 24 hours before stimulation. Synovial fibroblasts (used only at either passage number 2 or 3) were cultured at 1×10^4 cells/well in DMEM containing 10% (v/v) FBS and 100 U/ml penicillin/streptomycin in 96-well tissue culture plates for 24 hours before stimulation.
as §4, §5, §6

A further assay deals with RA synovial fibroblasts. Description: Cytokine synthesis in RA synovial fibroblasts stimulated with tenascin-C, FBG or LPS. Type of assay: cell-based, human. Particulars: 24 h.
Text: RA membrane cells (representing a mixed population of all synovial cell types) were isolated from synovial membranes obtained from patients undergoing joint replacement surgery as previously described (Brennan (1989)). RA synovial fibroblasts were isolated from the mixed population of RA membrane cells as previously described (Brennan (1989)). The study was approved by the local Trust ethics committee (Riverside NHS Research Committee), and waste tissue (synovium after joint replacement surgery) was obtained only after receiving signed informed consent from the patient and anonymyzing the tissue to protect patient identity.
as §8, §4, §5, §6

Consider “ELRVDLRDHGETAFAVYDKFSVGDAKTRYK [Peptide 5]”, for which the “effect on TNF synthesis” value with RA membrane cells (RA membrane cells, 24 h) is “no effect”. The “maximal inhibition of IL8 synthesis” value with RA membrane cells (RA membrane cells, dose dependent) worked out at 81%. For the same molecule, in assay [1], the “cytokine synthesis (induction)” value is given as “induced cytokine synthesis in a dose dependent manner”. The “FBG mediated cytokine synthesis (block)” value in the assay on human macrophages is listed as “specifically blocked”.
As for “IL-1 receptor antagonist: IL-1 receptor antagonist from R&D Systems”, the “inhibition of FBG induction of cytokines” value in assay [2] is listed as “did not inhibit”.
In the case of “KTRYKLKVEGYSGTAGDSMAYHNGRSFST [Peptide 6]”, the “cytokine synthesis (induction)” value in assay [1] is reported as “induced cytokine synthesis in a dose dependent manner”.
In the case of Pam3Cys-Ser-Lys4 [reference compound], the “cytokine synthesis in embryonic fibroblasts with targeted deletion of MyD88” value (from here on “cytokine synthesis … of MyD88”) in assay [3] is listed as “abolished”. Besides, in assay [4], the “cytokine synthesis in cells from TLR2 deficient mice” value is “unresponsive” and the “cytokine synthesis in cells from TLR4 deficient mice” value is “did respond”.
For the molecule “TIGLLYPFPKDCSQAMLNGDTTSGLYTIYL [Peptide 1]”, the “cytokine synthesis (induction)” value in assay [1] is “induced cytokine synthesis in a dose dependent manner”.
Take TNF-α [reference compound]: the “cytokine synthesis … of MyD88” value in assay [3] is “unaffected”.
Turning to “WIVFLRRKNGRENFYQNWKAYAAGFGDRRE [Peptide 3]”, in the assay with RA membrane cells, the “inhibition of cytokine synthesis” value amounted to 95%; the “TNF and IL8 synthesis (inhibition)” value is given as “inhibited”.
Turning to “WYRNCHRVNLMGRYGDNNHSQGVNWFHWKG [Peptide 8]”, in the assay with RA membrane cells, the “inhibition of cytokine synthesis” value is reported as 56%; the “TNF and IL8 synthesis (inhibition)” value is listed as “inhibited”. In addition, the “cytokine synthesis in response to LPS (block)” value in the assay with human macrophages (then 1 ng/ml LPS 24 h) was “blocked”. The “FBG mediated cytokine synthesis (block)” value with human macrophages is reported as “blocked”.
In the case of “tenascin-C: recombinant full-length human tenascin-C purified from HEK293 conditioned medium”, the “production of TNF-α, IL-6 and IL-8 in human macrophages” value in assay [5] (1.0 μM-1.0 nM, 24 h) was “dose dependently stimulated”. In assay [5] (boiled 15 minutes, 25 μg/ml polymyxin B pre-incubation, human macrophages and synovial fibroblasts), the “cytokine stimulation: heat sensitivity and effect of polymyxin B” value was “heat sensitive and unaffected by the LPS inhibitor, polymyxin B”. Moreover, in the assay on RA synovial fibroblasts, the “TNF-α synthesis in fibroblasts” value was “Neither LPS nor tenascin-C induced”. For the same molecule, in the assay with RA synovial fibroblasts (LPS 10 ng/ml), the “IL-6 synthesis in RA synovial fibroblasts” value was “only induced IL-6 synthesis” and the “IL-8 synthesis in RA synovial fibroblasts” value is reported as “only induced IL-6 synthesis”.

B1: IL-1: murine IL-1 used to stimulate MEFs (protein, UniProt P10749 118-269, looked up)
Interleukin-1 beta: VPIRQLHYRLRDEQQKSLVLSDPYELKALHLNGQNINQQVIFSMSFVQGEPSNDKIPVALGLKGKNLYLSCVMKDGTPTLQLESVDPKQYPKKKMEKRFVFNKIEVKSKVEFESAEFPNWYISTSQAEHKPVFLGNNSGQDIIDFTMESVSS
In the case of B1, the “cytokine synthesis … of MyD88” value in assay [3] is listed as “abolished”. In assay [4], the “cytokine synthesis in cells from TLR2 deficient mice” value is “responsive” and the “cytokine synthesis in cells from TLR4 deficient mice” value is reported as “did respond”.
